Usually EC50 stands for the concentration that produces a half-maximal response.

SMILES strings stand for the structures.

The record followed here is patent US9983218B2, “Indole and indoline derivatives and methods of use thereof” (AbbVie Inc., priority 2008, dated 2018).

For the test, the system named is SK-N-SH human neuroblastoma cells. The test is described as follows: Serum deprivation/JC-1 mitochondrial membrane potential (MMP) assay. The test is classed as cell-based. The note with it: Homo sapiens; for Emax: SK-N-SH, percent maximal intensity in JC-1 ratio normalized to 10 μM dimebolin, read-out: JC-1 max %; for EC50: SK-N-SH cells, serum deprivation ~18 hours, JC-1 ratio normalized to peak value for 10 μM dimebolin, single curve fit to mean data of n=2-3, read-out: EC50. The method, boiled down: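 Cells were serum-deprived ~18 h in MEM with or without compound (DMSO ≤1%), then stained with JC-1 for 35 min at 37° C. The red/green fluorescence ratio (560/595 vs 485/535 nm) was normalized to the peak response of 10 μM dimebolin. EC50 came from one curve fit to mean data (n=2-3, duplicates).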

For `Fc1ccc2c(c1)c1c(n2-c2ccc3ccccc3n2)C2CCN(CC2)C1` [Example 224, 9-fluoro-6-quinolin-2-yl-3,4,5,6-tetrahydro-1H-2,5-ethanoazepino[4,3-b]indole], the Emax stood at 215% and the EC50 worked out at 3.17 µM.
For `Cc1ccc2c(c1)c1c(n2CCc2cnc(C)cn2)C[C@H]2CC[C@@H]1N2C` [Example 34, (7R,10S)-2,11-dimethyl-5-[2-(5-methylpyrazin-2-yl)ethyl]-5,6,7,8,9,10-hexahydro-7,10-epiminocyclohepta[b]indole], in that order: 175% and 18.1 µM.
In the same order, the values of `c1ccc2nc(-n3c4c(c5ccccc53)CN3CCC4CC3)ccc2c1` [Example 235, 6-quinolin-2-yl-3,4,5,6-tetrahydro-1H-2,5-ethanoazepino[4,3-b]indole] are 252% and 3.96 µM.
For `Cc1ccc(CCn2c3c(c4cc(-c5cn[nH]c5)ccc42)C2CCC(C3)N2C)cn1` (centres unmarked) [Example 112, 11-methyl-5-[2-(6-methylpyridin-3-yl)ethyl]-2-(1H-pyrazol-4-yl)-5,6,7,8,9,10-hexahydro-7,10-epiminocyclohepta[b]indole], in that order: 101% and 3.43 µM.
On to `CC(C)N(C)c1ccc(Cn2c3c(c4cc(F)ccc42)CN2CCC3CC2)cn1` [Example 242, 5-[(9-fluoro-1,3,4,5-tetrahydro-6H-2,5-ethanoazepino[4,3-b]indol-6-yl)methyl]-N-isopropyl-N-methylpyridin-2-amine], for which the Emax was determined as 169% and the concentration giving a half-maximal response (EC50) worked out at 8.12 µM.
For `Fc1ccc2c(c1)c1c(n2-c2ccc3ccncc3c2)C2CCN(CC2)C1` [Example 223, 9-fluoro-6-isoquinolin-7-yl-3,4,5,6-tetrahydro-1H-2,5-ethanoazepino[4,3-b]indole], in that order: 287% and 3.84 µM.
`CN1C2CCC1c1c(n(CCc3ccc(Cl)cc3)c3ccc(C(C)(C)C)cc13)C2` (centres unmarked) [Example 105, 2-tert-butyl-5-[2-(4-chlorophenyl)ethyl]-11-methyl-5,6,7,8,9,10-hexahydro-7,10-epiminocyclohepta[b]indole]: the Emax was found to be 129% and the concentration giving a half-maximal response (EC50) worked out at 3.88 µM.
For `Cc1ccc2c(c1)c1c(n2CCc2ccccc2C)C2CC3CC1CN(C3)C2` (centres unmarked) [Example 197, 11-methyl-8-[2-(2-methylphenyl)ethyl]-1,4,5,6,7,8-hexahydro-2H-1,5:3,7-dimethanoazonino[5,4-b]indole], in that order: 173% and 5.63 µM.
In the same order, the values of `Fc1ccc2c(c1)c1c(n2Cc2ccc(C(F)(F)F)nc2)C2CCN(CC2)C1` [Example 183, 9-fluoro-6-{[6-(trifluoromethyl)pyridin-3-yl]methyl}-3,4,5,6-tetrahydro-1H-2,5-ethanoazepino[4,3-b]indole] are 172% and 8.97 µM.
In the same order, the values of `CN1CCN(c2ccc(-n3c4c(c5ccccc53)CN3CCC4CC3)cc2)CC1` [Example 237, 6-[4-(4-methylpiperazin-1-yl)phenyl]-3,4,5,6-tetrahydro-1H-2,5-ethanoazepino[4,3-b]indole] are 174% and 2.48 µM.
As for `Cc1ccc2c(c1)c1c(n2/C=C/c2ccc(C)nc2)C[C@@H]2CC[C@H]1N2C` [Example 23, (7S,10R)-2,11-dimethyl-5-[(E)-2-(6-methylpyridin-3-yl)vinyl]-5,6,7,8,9,10-hexahydro-7,10-epiminocyclohepta[b]indole], the Emax came to 332% and the EC50 came out at 3.32 µM.
In the same order, the values of `Cc1ccc2c(c1)c1c(n2-c2ccc(-c3ccc(I)cc3)nn2)CC2CCC1N2C` (centres unmarked) [Example 3, 5-[6-(4-iodophenyl)pyridazin-3-yl]-2,11-dimethyl-5,6,7,8,9,10-hexahydro-7,10-epiminocyclohepta[b]indole] are 191% and 5.11 µM.
As for `COCCN(C)c1ccc(Cn2c3c(c4cc(F)ccc42)CN2CCC3CC2)cn1` [Example 245, 5-[(9-fluoro-1,3,4,5-tetrahydro-6H-2,5-ethanoazepino[4,3-b]indol-6-yl)methyl]-N-(2-methoxyethyl)-N-methylpyridin-2-amine], the Emax amounted to 189% and the EC50 is 10 µM.
In the same order, the values of `CN1[C@@H]2CC[C@H]1c1c(n(-c3ccc4ncccc4c3)c3ccccc13)C2` [Example 286, (7R,10S)-11-methyl-5-(quinolin-6-yl)-5,6,7,8,9,10-hexahydro-7,10-epiminocyclohepta[b]indole] are 239% and 4.41 µM.
In the same order, the values of `c1cc(-n2cccn2)nc(-n2c3c(c4ccccc42)CN2CCC3CC2)c1` [Example 236, 6-[6-(1H-pyrazol-1-yl)pyridin-2-yl]-3,4,5,6-tetrahydro-1H-2,5-ethanoazepino[4,3-b]indole] are 268% and 1.74 µM.
For `c1ccc2c(c1)c1c(n2-c2ccc3ncncc3c2)C2CCN(CC2)C1` [Example 269, 6-(quinazolin-6-yl)-3,4,5,6-tetrahydro-1H-2,5-ethanoazepino[4,3-b]indole], in that order: 204% and 0.745 µM.
With `Cc1ccc2c(c1)c1c(n2S(=O)(=O)c2cccnc2)CC2CCC1N2C` (centres unmarked) [Example 77, 2,11-dimethyl-5-(pyridin-3-ylsulfonyl)-5,6,7,8,9,10-hexahydro-7,10-epiminocyclohepta[b]indole], the Emax turned out to be 223% and the EC50 stood at 9.22 µM.
With `NC(=O)c1ccc(-n2c3c(c4ccccc42)CN2CCC3CC2)nc1` [Example 266, 6-(1,3,4,5-tetrahydro-6H-2,5-ethanoazepino[4,3-b]indol-6-yl)nicotinamide], the Emax was 127% and the EC50 came to 10.7 µM.
`Cc1ccc(CCn2c3c(c4cc(C(C)(C)C)ccc42)C2CCC(C3)N2C)cn1` (centres unmarked) [Example 104, 2-tert-butyl-11-methyl-5-[2-(6-methylpyridin-3-yl)ethyl]-5,6,7,8,9,10-hexahydro-7,10-epiminocyclohepta[b]indole]: the Emax was 178% and the half-maximal effective concentration (EC50) was found to be 4.16 µM.
In the same order, the values of `Cc1ccc2c(c1)c1c(n2CCc2ccccc2C)C2CCCN(C1)C2` (centres unmarked) [Example 203, 10-methyl-7-[2-(2-methylphenyl)ethyl]-1,3,4,5,6,7-hexahydro-2,6-methanoazocino[4,3-b]indole] are 159% and 4.53 µM.
For `COc1ccc2c(c1)c1c(n2CCc2ccc(C)nc2)CC2CCC1N2C` (centres unmarked) [Example 91, 2-methoxy-11-methyl-5-[2-(6-methylpyridin-3-yl)ethyl]-5,6,7,8,9,10-hexahydro-7,10-epiminocyclohepta[b]indole], in that order: 129% and 6.33 µM.
In the same order, the values of `Cc1ccc(CCn2c3c(c4cc(OC(F)(F)F)ccc42)CN2CCC3CC2)cn1` [Example 178, 6-[2-(6-methylpyridin-3-yl)ethyl]-9-(trifluoromethoxy)-3,4,5,6-tetrahydro-1H-2,5-ethanoazepino[4,3-b]indole] are 192% and 4.17 µM.
For `Cc1ccc2c(c1)c1c(n2CCc2ccccc2F)C2CCN(CC2)C1` [Example 150, 6-[2-(2-fluorophenyl)ethyl]-9-methyl-3,4,5,6-tetrahydro-1H-2,5-ethanoazepino[4,3-b]indole], the Emax came out at 134% and the EC50 came to 3.6 µM.
In the same order, the values of `c1ccc2c(c1)c1c(n2Cc2ccncc2)C2CCN(CC2)C1` [Example 189, 6-[(pyridin-4-yl)methyl]-3,4,5,6-tetrahydro-1H-2,5-ethanoazepino[4,3-b]indole] are 107% and 11.3 µM.
`Cc1ccc(CCn2c3c(c4cc(C5CC5)ccc42)C2CCC(C3)N2C)cn1` (centres unmarked) [Example 103, 2-cyclopropyl-11-methyl-5-[2-(6-methylpyridin-3-yl)ethyl]-5,6,7,8,9,10-hexahydro-7,10-epiminocyclohepta[b]indole]: the Emax was 180% and the EC50 turned out to be 4.17 µM.
In the same order, the values of `Fc1ccc2c(c1)c1c(n2Cc2ccnc(F)c2)C2CCN(CC2)C1` [Example 191, 9-fluoro-6-[(2-fluoropyridin-4-yl)methyl]-3,4,5,6-tetrahydro-1H-2,5-ethanoazepino[4,3-b]indole] are 112% and 7.04 µM.
In the same order, the values of `Cc1ccc2c(c1)[C@@H]1[C@H]3CC[C@@H](C[C@@H]1N2CCc1ccc(C)nc1)N3C` [Example 113, (5aS,7S,10R,10aR)-2,11-dimethyl-5-[2-(6-methylpyridin-3-yl)ethyl]-5,5a,6,7,8,9,10,10a-octahydro-7,10-epiminocyclohepta[b]indole] are 353% and 2.99 µM.
For `CN1C2CCC1c1c(n(CCc3ccc(Cl)cc3)c3ccc(Br)cc13)C2` (centres unmarked) [Example 87, 2-bromo-5-[2-(4-chlorophenyl)ethyl]-11-methyl-5,6,7,8,9,10-hexahydro-7,10-epiminocyclohepta[b]indole], in that order: 139% and 3.33 µM.
With `CN1C2CCC1c1c(n(CCc3ccc(Cl)cc3)c3ccc(-c4ccc(Cl)cc4)cc13)C2` (centres unmarked) [Example 107, 2-(4-chlorophenyl)-5-[2-(4-chlorophenyl)ethyl]-11-methyl-5,6,7,8,9,10-hexahydro-7,10-epiminocyclohepta[b]indole], the Emax was found to be 153% and the concentration for a half-maximal effect (EC50) was determined as 4.08 µM.
For `Cc1ccc2c(c1)c1c(n2CCc2ccc(Cl)cc2)C2CCN(CC2)C1` [Example 151, 6-[2-(4-chlorophenyl)ethyl]-9-methyl-3,4,5,6-tetrahydro-1H-2,5-ethanoazepino[4,3-b]indole], in that order: 121% and 5.38 µM.
In the case of `Cc1ccc2c(c1)c1c(n2/C=C/c2ccc(C)nc2)C2CCN(CC2)C1` [Example 146, 9-methyl-6-[(E)-2-(6-methylpyridin-3-yl)vinyl]-3,4,5,6-tetrahydro-1H-2,5-ethanoazepino[4,3-b]indole], the Emax was 264% and the half-maximal effective concentration (EC50) is 2.84 µM.
